Source: patent US20060100260A1, “Substituted pyrazoline carboxanilides for use as pesticides” (priority 2002, published 2006)

Key:
[1] = logP determination by HPLC (EEC Directive 79/831 Annex V.A8); format: physicochemical; details: reversed-phase HPLC column (C 18), pH 2.3, reversed-phase column (C 18), 43° C.
Description: The logP values given in the Preparation Examples are determined in accordance with EEC Directive 79/831 Annex V.A8 by HPLC (High Performance Liquid Chromatography) using a reversed-phase column (C 18). Temperature: 43° C.
The determination is carried out in the acidic range at pH 2.3 using the mobile phases 0.1% aqueous phosphoric acid and acetonitrile; linear gradient from 10% acetonitrile to 90% acetonitrile.
Calibration is carried out using unbranched alkan-2-ones (having 3 to 16 carbon atoms) with known logP values (determination of the logP values by the retention times using linear interpolation between two successive alkanones).

[2] = tested on: larvae of the mustard beetle (Phaedon cochleariae); test: Phaedon larvae test; format: in vivo; details: active compound concentration 100 ppm; after 7 days; dipped cabbage leaves
Description: (§1) [table] To produce a suitable preparation of active compound, 1 part by weight of active compound is mixed with the stated amounts of solvent and emulsifier, and the concentrate is diluted with emulsifier-containing water to the desired concentration. Cabbage leaves (Brassica oleracea) are treated by being dipped into the preparation of active compound of the desired concentration and are populated with larvae of the mustard beetle (Phaedon cochleariae) while the leaves are still moist. After the desired period of time, the kill in % is determined. 100% means that all beetle larvae have been killed; 0% means that none of the beetle larvae have been killed.

[3] = tested on: caterpillars of the diamondback moth (Plutella xylostella); test: Plutella test; format: in vivo; details: active compound concentration 100 ppm; after 7 days; dipped cabbage leaves
Description: as §1, with “caterpillars” for “larvae”, “diamondback moth (Plutella xylostella)” for “mustard beetle (Phaedon cochleariae)”, “caterpillars” for “beetle larvae”

Heliothis armigera = Heliothis armigera test; format: in vivo; details: active compound concentration 100 ppm; after 7 days; dipped soya bean shoots
[4] = tested on: caterpillars of the armyworm (Spodoptera frugiperda); test: Spodoptera frugiperda test; format: in vivo; details: active compound concentration 100 ppm; after 7 days; dipped cabbage leaves
Description: as §1, with “caterpillars” for “larvae”, “armyworm (Spodoptera frugiperda)” for “mustard beetle (Phaedon cochleariae)”, “caterpillars” for “beetle larvae”

| chromatographic logP [1] | SMILES | kill [2] [%] | kill [3] [%] | kill (Heliothis armigera) [%] | kill [4] [%] |
| --- | --- | --- | --- | --- | --- |
| 2.64 | Clc1ccc(C2=NNCC2n2cc(Cl)cn2)cc1 (stereo not drawn) [Example (II-1), 3-(4-chlorophenyl)-4-(4-chloropyrazol-1-yl)-4,5-dihydro-1H-pyrazole] |  |  |  |  |
| 3.94 | N#CCN(C(=O)N1CC(n2cc(Cl)cn2)C(c2ccc(Cl)cc2)=N1)c1ccc(Cl)cc1 (stereo not drawn) [Example 1, 3-(4-chlorophenyl)-4-(4-chloropyrazol-1-yl)-4,5-dihydro-1-pyrazolecarboxylic acid (N-cyanomethyl)-4-chloroanilide] | 100 | 100 | 100 | 100 |
